{
  "source": "patent US20200397807A1",
  "about": "“NICOTINYL RIBOSIDE COMPOUNDS AND THEIR USES” (MitoPower, LLC, priority 2019, published 2020)",
  "key": {"Jurkat cells [1]": {"test_system": "Jurkat cells", "test": "Total cellular NAD^+ level after MNNG-induced depletion (NAD/NADH Glo assay)", "assay_type": "cell-based", "settings": "for increase of NAD^+ level: 100 μM MNNG 30 min, wash, NR 100 μM or/and olaparib 5 nM 3.5 hr; for % NAD^+ Repletion: MNNG 100 μM, compound 1 mM"}, "[2]": {"settings": "4 g of oral NTZ; healthy adults; cited from earlier work"}, "HepG2 cells [3]": {"test_system": "HepG2 cells", "test": "Total cellular NAD^+ level after MNNG-induced depletion (NAD/NADH Glo assay)", "assay_type": "cell-based", "settings": "MNNG 100 μM, compound 1 mM"}, "HepG2 cells [4]": {"test_system": "HepG2 cells", "test": "MNNG-induced cytotoxicity / cytoprotection (CellTiter-Blue Cell Viability Assay)", "assay_type": "cell-based", "settings": "MNNG 600 μM, compound 1 mM"}, "Jurkat cells [5]": {"test_system": "Jurkat cells", "settings": "MNNG 100 μM, compound 1 mM"}, "HepG2 cells [6]": {"test_system": "HepG2 cells", "test": "Lactate released into the media", "assay_type": "cell-based"}, "HepG2 cells [7]": {"test_system": "HepG2 cells", "test": "Glucose concentration in the media", "assay_type": "cell-based"}, "HepG2 cells [8]": {"test_system": "HepG2 cells"}, "HepG2 cells [9]": {"test_system": "HepG2 cells", "remark": "listed apart in the source"}, "[10]": {"settings": "led to fatally high body temperature; cited from earlier work"}, "Jurkat cells [11]": {"test_system": "Jurkat cells", "test": "NAD^+ assay (total cellular NAD^+ by HPLC/LCMS), with or without MNNG", "settings": "Jurkat not treated with MNNG; NRH vs. NR 100 μM; 4 hr"}},
  "note": "Where a name gives a salt, the structure may show the parent alone. Read-outs that look alike come from different tables or passages of the source.",
  "data": [
    {"smiles": "O=C(c1cc(Cc2n[nH]c(=O)c3ccccc23)ccc1F)N1CCN(C(=O)C2CC2)CC1", "note": "[olaparib, reference compound]", "values": [
      {"measurement": "increase of NAD^+ level", "setting": "Jurkat cells [1]", "result": 8, "unit": "%"}
    ]},
    {"smiles": "CC(=O)Oc1ccccc1C(=O)Nc1ncc([N+](=O)[O-])s1", "note": "[NTZ, nitazoxanide]", "values": [
      {"measurement": "adverse effect", "setting": "[2]", "result": "does not cause any significant adverse effect"}
    ]},
    {"smiles": "NC(=O)c1ccc[n+]([C@@H]2O[C@H](COC(=O)CCC(=O)O)[C@@H](O)[C@H]2O)c1", "note": "[MP-42, 3-Carboxamide-1-((2R,3R,4S,5R)-5-(((3-carboxypropanoyl)oxy)methyl)-3,4-dihydroxytetrahydrofuran-2-yl)pyridin-1-ium Trifluoroacetate]", "values": [
      {"measurement": "% NAD^+ Repletion", "setting": "Jurkat cells [1]", "result": 8.2, "unit": "%"},
      {"measurement": "% NAD^+ Repletion", "setting": "HepG2 cells [3]", "result": 23.7, "unit": "%"},
      {"measurement": "% Cytoprotection", "setting": "HepG2 cells [4]", "result": 9.9, "unit": "%"},
      {"measurement": "% Cytoprotection", "setting": "Jurkat cells [5]", "result": 4.5, "unit": "%"}
    ]},
    {"smiles": "O=[N+]([O-])c1ccc(O)c([N+](=O)[O-])c1", "note": "[DNP, 2,4-Dinitrophenol]", "values": [
      {"measurement": "concentration of lactate released into the media", "setting": "HepG2 cells [6]", "result": "markedly increased"},
      {"measurement": "concentration of glucose in the media", "setting": "HepG2 cells [7]", "result": "significantly reduced"},
      {"measurement": "% viability of HepG2 cells", "setting": "HepG2 cells [8]", "result": "significantly reduced"},
      {"measurement": "activity of lactate dehydrogenase (LDH) released into the media", "setting": "HepG2 cells [9]", "result": "markedly increased"},
      {"measurement": "dose causing excessive systemic uncoupling, fold greater than minimum effective dose for reducing body weight", "setting": "[10]", "result": "3-10 fold"}
    ]},
    {"smiles": "NC(=O)C1=CN([C@@H]2O[C@H](CO)[C@@H](O)[C@H]2O)C=CC1", "note": "[NRH]", "values": [
      {"measurement": "concentration of lactate released into the media", "setting": "HepG2 cells [6]; 50 μM DNP, 100 μM NRH or both, 4 hr, versus untreated, FIG. 28", "result": "did not significantly affect"},
      {"measurement": "concentration of glucose in the media", "setting": "HepG2 cells [7]; 50 μM DNP, 100 μM NRH or both, 4 hr, versus untreated, FIG. 29", "result": "did not significantly affect"},
      {"measurement": "NAD^+ level, NRH alone versus NR alone", "setting": "Jurkat cells [11]", "result": "markedly higher NAD^+ level than NR alone"}
    ]},
    {"smiles": "COC(=O)CCC(=O)OC[C@H]1O[C@@H]([n+]2cccc(C(N)=O)c2)[C@H](O)[C@@H]1O", "note": "[MP-43, 3-Carboxamide-1-((2R,3R,4S,5R)-3,4-dihydroxy-5-(((4-methoxy-4-oxobutanoyl)oxy)methyl)tetrahydrofuran-2-yl)pyridin-1-ium Trifluoroacetate]", "values": [
      {"measurement": "% NAD^+ Repletion", "setting": "Jurkat cells [1]", "result": 12.9, "unit": "%"},
      {"measurement": "% NAD^+ Repletion", "setting": "HepG2 cells [3]", "result": 31.1, "unit": "%"},
      {"measurement": "% Cytoprotection", "setting": "HepG2 cells [4]", "result": 5.7, "unit": "%"},
      {"measurement": "% Cytoprotection", "setting": "Jurkat cells [5]", "result": 6.3, "unit": "%"}
    ]},
    {"smiles": "NC(=O)c1ccc[n+]([C@@H]2O[C@H](CO)[C@@H](O)[C@H]2O)c1", "note": "[NR, nicotinamide riboside, reference compound]", "values": [
      {"measurement": "increase of NAD^+ level", "setting": "Jurkat cells [1]", "result": 43, "unit": "%"}
    ]}
  ]
}
